Measured values taken from patent US5194383A, “Process for making L-aminoacylase” (priority 1991, dated 1993).

Test system: L-amino acylase
Test: Substrate specificity of L-amino acylase (ninhydrin method)
Assay type: biochemical, Alcaligenes denitrificans DA181
Details: D-form of substrate; 37° C., 50 mM Tris-HCl buffer pH 8.0
Experimental: This enzyme may hydrolyze N-acetyl-L-amino acids with a higher reactivity, but hydrolyze the N-acetyl-D-amino acids with a lower reactivity.
(§1) A comparison of the substrate specificity of L-amino acylase of this invention with D-amino acylase is summarized as shown in Table 3.
(§2) The enzyme activity was determined at 37° C. in 50 mM TrisCHl
(§3) buffer pH 8.0 by ninhydrin method.

Row | Compound | Relative activity (%) L-amino acylase [%]
1 | CC(=O)N[C@@H](C)C(=O)O [N-acetyl-alanine] | 0
2 | CC[C@@H](C)[C@H](NC(C)=O)C(=O)O [N-acetyl-alloisoleucine] | 0
3 | CC(=O)N[C@@H](CC(N)=O)C(=O)O [N-acetyl-asparagine] | 0
4 | CC(=O)N[C@@H](CC(C)C)C(=O)O [N-acetyl-leucine] | 2
5 | CSCC[C@H](NC(C)=O)C(=O)O [N-acetyl-methionine] | 0.12
6 | CC(=O)N[C@@H](Cc1ccccc1)C(=O)O [N-acetyl-phenylalanine] | 0.9
7 | CC(=O)N[C@@H](C(=O)O)c1ccccc1 [N-acetyl-phenylglycine] | 0
8 | CC(=O)N[C@@H](Cc1c[nH]c2ccccc12)C(=O)O [N-acetyl-tryptophan] | 0.9
9 | CC(=O)N[C@H](C(=O)O)C(C)C [N-acetyl-valine] | 7
10 | CC(C)[C@H](NC(=O)CCl)C(=O)O [N-chloroacetyl-valine] | 0.8

Same assay, conditions: L-form of substrate; 37° C., 50 mM Tris-HCl buffer pH 8.0

Row | Compound | Relative activity (%) L-amino acylase [%]
11 | CC(=O)N[C@@H](C)C(=O)O [N-acetyl-alanine] | 78
12 | CC(=O)N[C@@H](CCCNC(=N)N)C(=O)O [N-acetyl-arginine] | 0.04
13 | CC(=O)N[C@@H](CC(N)=O)C(=O)O [N-acetyl-asparagine] | 3
14 | CC(=O)N[C@@H](CC(=O)O)C(=O)O [N-acetyl-aspartic acid] | 1
15 | CC(=O)N[C@@H](CCC(=O)O)C(=O)O [N-acetyl-glutamic acid] | 0.12
16 | CC(=O)N[C@@H](Cc1c[nH]cn1)C(=O)O [N-acetyl-histidine] | 0.08
17 | CC(=O)N[C@@H](CC(C)C)C(=O)O [N-acetyl-leucine] | 10
18 | CSCC[C@H](NC(C)=O)C(=O)O [N-acetyl-methionine] | 30
19 | CC(=O)N[C@@H](Cc1ccccc1)C(=O)O [N-acetyl-phenylalanine] | 34
20 | CC(=O)N[C@@H](Cc1c[nH]c2ccccc12)C(=O)O [N-acetyl-tryptophan] | 11
21 | CC(=O)N[C@@H](Cc1ccc(O)cc1)C(=O)O [N-acetyl-tyrosine] | 36
22 | CC(=O)N[C@H](C(=O)O)C(C)C [N-acetyl-valine] | 95
23 | CC(C)[C@H](NC(=O)CCl)C(=O)O [N-chloroacetyl-valine] | 100

Same assay, conditions: in words

Row | Compound | reactivity of hydrolysis by the enzyme
24 | CC(C)[C@H](NC(=O)CCl)C(=O)O [N-chloroacetyl-L-valine] | especially high

Test system: D-amino acylase
Test: Substrate specificity of D-amino acylase (ninhydrin method)
Assay type: biochemical
Details: D-form of substrate; 37° C., 50 mM Tris-HCl buffer pH 8.0
Experimental: as §1, §2, §3

Row | Compound | Relative activity (%) D-amino acylase [%]
25 | CC(=O)N[C@@H](C)C(=O)O [N-acetyl-alanine] | 25
26 | CC[C@@H](C)[C@H](NC(C)=O)C(=O)O [N-acetyl-alloisoleucine] | 12
27 | CC(=O)N[C@@H](CC(N)=O)C(=O)O [N-acetyl-asparagine] | 17
28 | CC(=O)N[C@@H](CC(C)C)C(=O)O [N-acetyl-leucine] | 60
29 | CSCC[C@H](NC(C)=O)C(=O)O [N-acetyl-methionine] | 100
30 | CC(=O)N[C@@H](Cc1ccccc1)C(=O)O [N-acetyl-phenylalanine] | 81
31 | CC(=O)N[C@@H](C(=O)O)c1ccccc1 [N-acetyl-phenylglycine] | 5
32 | CC(=O)N[C@@H](Cc1c[nH]c2ccccc12)C(=O)O [N-acetyl-tryptophan] | 33
33 | CC(=O)N[C@H](C(=O)O)C(C)C [N-acetyl-valine] | 6
34 | CC(C)[C@H](NC(=O)CCl)C(=O)O [N-chloroacetyl-valine] | 66

Test system: L-amino acylase
Test: not given
Assay type: biochemical, Alcaligenes denitrificans DA181
Details: 50 mm tris-hcl, pH 8, 30 min, 1000 µM
Experimental: Various metal ions were incubated with an appropriate amount of enzyme for 30 min in 50 mM Tris-HCl pH 8.0. The remaining activity was determined by ninhydrin method.

Row | Compound | relative activity of L-amino acylase (%)
35 | O=C(O)CN(CCN(CC(=O)O)CC(=O)O)CC(=O)O [EDTA.2Na] | 55

Same assay, conditions: in words; 30 minutes at 37° C., buffer A

Row | Compound | influence of the ion on the enzyme
36 | [Cl][Cd][Cl] [CdCl2] | inhibited
37 | [Cl][Cu][Cl] [CuCl2] | inhibited
38 | [Cl][Fe][Cl] [FeCl2] | inhibited
39 | [Cl][Hg][Cl] [HgCl2] | inhibited
40 | [Cl][Pb][Cl] [PbCl2] | inhibited
41 | [Cl-].[Cl-].[Zn+2] [ZnCl2] | inhibited

Same assay, conditions: metal ion 1 mM; 30 min, 50 mM Tris-HCl pH 8.0

Row | Compound | relative activity of L-amino acylase (%)
42 | [Ba+2].[Cl-].[Cl-] [BaCl2] | 92
43 | [Ca+2].[Cl-].[Cl-] [CaCl2] | 94
44 | [Cl][Cd][Cl] [CdCl2] | 16
45 | [Cl-].[Cl-].[Co+2] [CoCl2] | 120
46 | [Cl][Cu][Cl] [CuCl2] | 5
47 | [Cl][Fe][Cl] [FeCl2] | 15
48 | [Cl-].[Cl-].[Mg+2] [MgCl2] | 98
49 | [Cl][Mn][Cl] [MnCl2] | 86
50 | [Cl][Ni][Cl] [NiCl2] | 95
51 | [Cl][Pb][Cl] [PbCl2] | 50
52 | [Cl-].[Cl-].[Sr+2] [SrCl2] | 80
53 | [Cl-].[Cl-].[Zn+2] [ZnCl2] | 61

Same assay, conditions: metal ion 10^-1 mM; 30 min, 50 mM Tris-HCl pH 8.0; 100 µM

Row | Compound | relative activity of L-amino acylase (%)
54 | [Cl][Cu][Cl] [CuCl2] | 77
55 | [Cl][Pb][Cl] [PbCl2] | 71

Same assay, conditions: metal ion 10^-2 mM; 30 min, 50 mM Tris-HCl pH 8.0; 10 µM

Row | Compound | relative activity of L-amino acylase (%)
56 | [Cl][Cu][Cl] [CuCl2] | 90
57 | [Cl][Pb][Cl] [PbCl2] | 71

Same assay, conditions: metal ion 10^-3 mM; 30 min, 50 mM Tris-HCl pH 8.0; 1 µM

Row | Compound | relative activity of L-amino acylase (%)
58 | [Cl][Cu][Cl] [CuCl2] | 94
59 | [Cl][Hg][Cl] [HgCl2] | 0
60 | [Cl][Pb][Cl] [PbCl2] | 97

Same assay, conditions: metal ion 10^-4 mM; 30 min, 50 mM Tris-HCl pH 8.0; 0.1 µM

Row | Compound | relative activity of L-amino acylase (%)
61 | [Cl][Hg][Cl] [HgCl2] | 0

Test system: L-aminoacylase by Aspergillus
Test: not given
Details: conventional Aspergillus enzyme; cited from earlier work

Row | Compound | enzyme activation [fold]
62 | [Co+2] [cobalt ions] | 2.5
